Source: US20190041401A1, “Methods of Treating Subjects having Severe and/or Persistent Asthma” (National Jewish Health, priority 2015, published 2019)

How the values were obtained:
[1] = tested on: human lung epithelial cell line A549; test: IL-33 mRNA induction in A549 cells (real-time PCR); format: cell-based; details: cytokine treatment for 72 hours, normalized to GAPDH
Method: (§1) FIGS. 18A-18J show the role of IL-33 in the persistence of asthma. FIG. 18A, A549 cells were cultured in medium alone or with IL-33 ([…]), IL-1b (2 ng/mL), IL-4 (10 ng/mL), IL-13 (20 ng/mL), IL-17 (10 ng/mL), TNF (2 ng/mL), IFN-γ (10 ng/mL), or IFN-γ plus TNF (same concentrations) for 72 hours, and then mRNA was analyzed for IL-33 normalized to glyceraldehyde-3-phosphate dehydrogenase (GAPDH). *P<0.05 and **P<0.01. There were 4 to 8 mice per group. FIGS. 18B-18E show the direct effect of IL-33 on airway hyperreactivity, lung ILCs, and autoinduction. […] IN, Intranasal. […] The change in RL with the 25-mg dose of methacholine is shown (n=5 per group). *P<0.05.
Immediately after flexiVent analysis, lung sections were collected in RIPA buffer (50 mmol/L Tris [pH 7.4], 150 mmol/L NaCl, 1 mmol/L EDTA, 1 mmol/L NaF, 1 mmol/L Na3VO4, and 0.1 mmol/L phenylmethylsulfonyl fluoride) containing protease and phosphatase inhibitors and homogenized. Lysed samples were subjected to 10% SDS-PAGE, transferred to a polyvinylidene difluoride membrane, and then immunoblotted with primary antibodies (IL-33 [R&D Systems], tubulin [H-235], and b-actin [Santa Cruz Biotechnology, Dallas, Tex]). After washing, the membranes were incubated with a horseradish peroxidase-conjugated secondary antibody. After additional washing, the membranes were developed with ECL reagent, as previously described (Gorska et al. 2007). A549 cell culture A549 cells were cultured in RPMI in 10% FBS (HyClone; Thermo Scientific, Waltham, Mass.) and 1% penicillin/streptomycin (Gibco, Carlsbad, Calif.) and maintained at 378C in a humidified 5% CO2 incubator. All cytokines were purchased from PeproTech (Rocky Hill, N.J.). In one experiment cells were treated with medium, IL-1b (2 ng/mL), IL-4 (10 ng/mL), IL-13 (20 ng/mL), IL-17 (10 ng/mL), IL-33 (20 ng/mL), TNF (2 ng/mL), IFN-g (10 ng/mL), and TNF (2 ng/mL) plus IFN-g (10 ng/mL) for 72 hours. Cellular RNA was analyzed for mRNA for IL-33 and IL-33R. In a second experiment cells were pretreated for 24 hours with medium, IL-1b (2 ng/mL), IL-4 (10 ng/mL), IL-13 (20 ng/mL), IL-17 (10 ng/mL), TNF (2 ng/mL), or IFN-g (10 ng/mL) before stimulation for 72 hours with IL-33 (20 ng/mL). Cellular RNAwas analyzed for mRNA for IL-33. In a third experiment cells were treated for 24 hours with DRA (5 μg/mL dust mite, 15 μg/mL ragweed, and 5 μg/mL Aspergillus species). Cellular RNA was analyzed for mRNA for IL-33. In a fourth experiment cells were treated for 24 hours with IL-13 (20 ng/mL) and ATP, and the supernatant was collected and analyzed for IL-33 levels by means of ELISA, according to the manufacturer's instructions (R&D systems). […]

A549 cells [2] = test: IL-33 autoinduction in A549 cells after cytokine pretreatment; format: cell-based, human; details: pretreated 24 hours with cytokine, then 72 hours with IL-33 (20 ng/mL)
Method: as §1
(§2) Immediately after flexiVent analysis, lung sections were collected in RIPA buffer (50 mmol/L Tris [pH 7.4], 150 mmol/L NaCl, 1 mmol/L EDTA, 1 mmol/L NaF, 1 mmol/L Na3VO4, and 0.1 mmol/L phenylmethylsulfonyl fluoride) containing protease and phosphatase inhibitors and homogenized. […] Cellular RNA was analyzed for mRNA for IL-33 and IL-33R. […] Cellular RNAwas analyzed for mRNA for IL-33. […] Cellular RNA was analyzed for mRNA for IL-33. In a fourth experiment cells were treated for 24 hours with IL-13 (20 ng/mL) and ATP, and the supernatant was collected and analyzed for IL-33 levels by means of ELISA, according to the manufacturer's instructions (R&D systems). […]

A549 cells [3] = test: Cytokine induction of IL-33R mRNA in A549 cells; format: cell-based, human; details: cytokine treatment for 72 hours
Method: as §1, §2

A549 cells [4] = test: IL-33 secretion by A549 cells (ELISA); format: cell-based, human; details: IL-13 20 ng/mL and ATP, overnight
Method: FIG. 27A, Effect of IL-13 on IL-33 secretion. A549 cells were treated overnight with medium or IL-13 (20 ng/mL) and ATP ([…]), and the released IL-33 was measured by using ELISA (n=6). *P=0.04. FIGS. 27B-27E, Direct effect of IL-33 on airway hyperreactivity and lung ILCs. C57Bl/6 mice were treated intranasally for 3 consecutive days with 400 ng per dose of IL-33. Outcome measures were evaluated 15 days after final exposure.
Immediately after flexiVent analysis, lung sections were collected in RIPA buffer (50 mmol/L Tris [pH 7.4], 150 mmol/L NaCl, 1 mmol/L EDTA, 1 mmol/L NaF, 1 mmol/L Na3VO4, and 0.1 mmol/L phenylmethylsulfonyl fluoride) containing protease and phosphatase inhibitors and homogenized. Lysed samples were subjected to 10% SDS-PAGE, transferred to a polyvinylidene difluoride membrane, and then immunoblotted with primary antibodies (IL-33 [R&D Systems], tubulin [H-235], and b-actin [Santa Cruz Biotechnology, Dallas, Tex]). […] Cellular RNA was analyzed for mRNA for IL-33 and IL-33R. […] Cellular RNAwas analyzed for mRNA for IL-33. […] Cellular RNA was analyzed for mRNA for IL-33. In a fourth experiment cells were treated for 24 hours with IL-13 (20 ng/mL) and ATP, and the supernatant was collected and analyzed for IL-33 levels by means of ELISA, according to the manufacturer's instructions (R&D systems).

IL-13: cytokine purchased from PeproTech, 20 ng/mL on A549 cells
induction of IL-33 mRNA [1]: most potent inducer of IL-33 mRNA | IL-33 autoinduction after preincubation with cytokine (A549 cells [2]): synergistically enhanced IL-33 autoinduction | induction of IL-33R mRNA (A549 cells [3]): strongly induced IL-33R | secretion of IL-33 (A549 cells [4]): stimulated secretion of IL-33
